The values below come from patent US9714236B2, “Compounds and methods for inhibiting JAK” (AstraZeneca AB, priority 2015, dated 2017).

Type in all cases: biochemical
Assay [1] deals with recombinant JAK3 (amino acids 781-1124) (Homo sapiens (Human), UniProt P52333). In words: Enzyme inhibition studies, JAK3 (peptide phosphorylation, Caliper LC3000). To be noted: ATP concentration of the tabulated values not stated (assayed at ATP Km 3 μM and at 5 mM). Here is the method: (§1) Enzyme inhibition studies were performed using recombinant JAK1 (amino acids 866-1154, Life Technologies, #PV4774, Carlsbad, Calif.), JAK2 (amino acids 831-1132), or JAK3 (amino acids 781-1124) under buffer conditions of 50 mM HEPES pH 7.3, 1 mM DTT, 0.01% Tween® 20, 50 μg/mL BSA, and 10 mM MgCl2. JAK enzyme was expressed as an N-terminal GST fusion in insect cells and purified by glutathione-affinity and size-exclusion chromatographies. […] Phosphorylated and unphosphorylated peptides were separated and quantified by a Caliper LC3000 system (Caliper Life Sciences, MA) for calculating percent inhibition.

The target in assay [2] is recombinant JAK1 (amino acids 866-1154) (Homo sapiens (Human), UniProt P23458). The assay is described as follows: Enzyme inhibition studies, JAK1 (peptide phosphorylation, Caliper LC3000). To be noted: ATP concentration not given (assayed at ATP Km 55 μM and at 5 mM). On the procedure:
as §1

Assay [3] concerns the target recombinant JAK2 (amino acids 831-1132) (Homo sapiens (Human), UniProt O60674). In words: Enzyme inhibition studies, JAK2 (peptide phosphorylation, Caliper LC3000). To be noted: ATP concentration of the tabulated values not stated (assayed at ATP Km 15 μM and at 5 mM). Here is the method:
as §1

Usually IC50 stands for the concentration needed to halve the response being measured.

Chain of recombinant JAK1 (amino acids 866-1154) (P23458 866-1154): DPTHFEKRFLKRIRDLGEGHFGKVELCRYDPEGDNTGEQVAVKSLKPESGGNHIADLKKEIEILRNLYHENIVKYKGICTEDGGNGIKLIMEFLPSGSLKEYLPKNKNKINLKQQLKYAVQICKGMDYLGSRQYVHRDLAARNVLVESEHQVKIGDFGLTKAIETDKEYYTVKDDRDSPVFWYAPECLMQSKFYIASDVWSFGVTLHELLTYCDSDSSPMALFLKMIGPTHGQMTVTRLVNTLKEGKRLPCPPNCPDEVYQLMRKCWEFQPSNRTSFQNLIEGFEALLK
Chain of recombinant JAK2 (amino acids 831-1132) (O60674 831-1132): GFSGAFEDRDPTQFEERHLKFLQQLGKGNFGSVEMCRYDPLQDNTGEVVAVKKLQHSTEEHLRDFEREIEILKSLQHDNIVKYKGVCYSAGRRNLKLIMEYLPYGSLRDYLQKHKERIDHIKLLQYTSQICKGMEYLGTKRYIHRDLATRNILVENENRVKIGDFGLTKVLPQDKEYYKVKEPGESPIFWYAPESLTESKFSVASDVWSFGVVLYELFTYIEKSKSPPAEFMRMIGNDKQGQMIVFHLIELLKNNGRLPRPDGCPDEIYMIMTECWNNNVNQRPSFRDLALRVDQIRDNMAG
Chain of recombinant JAK3 (amino acids 781-1124) (P52333 781-1124): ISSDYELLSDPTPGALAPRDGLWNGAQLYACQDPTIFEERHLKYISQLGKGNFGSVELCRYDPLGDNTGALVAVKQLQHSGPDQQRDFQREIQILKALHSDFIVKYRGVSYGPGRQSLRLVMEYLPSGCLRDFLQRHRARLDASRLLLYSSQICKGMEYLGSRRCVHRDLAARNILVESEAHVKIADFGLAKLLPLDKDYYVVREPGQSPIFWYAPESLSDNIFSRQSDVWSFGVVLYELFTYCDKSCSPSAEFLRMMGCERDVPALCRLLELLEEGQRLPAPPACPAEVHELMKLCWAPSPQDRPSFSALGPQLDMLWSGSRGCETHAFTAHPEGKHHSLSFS

On to `COc1nn(C)cc1Nc1ncc(C)c(-c2c[nH]c3c(NC(=O)[C@@H](C)N4CCN(C)CC4)cccc23)n1` [Example 34, (2R)-N-(3-{2-[(3-Methoxy-1-methyl-1H-pyrazol-4-yl)amino]-5-methylpyrimidin-4-yl}-1H-indol-7-yl)-2-(4-methylpiperazin-1-yl)propanamide], for which the IC50 in assay [1] was more than 30 µM; in assay [2] it was 10 nM; in assay [3], 5.37 µM.
For `CCOc1nn(C)cc1Nc1ncc(C)c(-c2c[nH]c3c(NC(=O)[C@@H](C)N4CCN(C)CC4)cccc23)n1` [Example 35, (2R)-N-(3-{2-[(3-ethoxy-1-methyl-1H-pyrazol-4-yl)amino]-5-methylpyrimidin-4-yl}-1H-indol-7-yl)-2-(4-methylpiperazin-1-yl)propanamide], in that order: more than 30 µM, 20 nM and 17 µM.
In the same order, the values of `COc1nn(C)cc1Nc1ncc(Cl)c(-c2c[nH]c3c(NC(=O)[C@@H](C)N4CCN(C)CC4)cccc23)n1` [Example 36, (2R)-N-(3-{5-chloro-2-[(3-methoxy-1-methyl-1H-pyrazol-4-yl)amino]pyrimidin-4-yl}-1H-indol-7-yl)-2-(4-methylpiperazin-1-yl)propanamide] are 19.1 µM, 7 nM and 1.76 µM.
Regarding `COc1nn(C)cc1Nc1ncc(Br)c(-c2c[nH]c3c(NC(=O)[C@@H](C)N4CCN(C)CC4)cccc23)n1` [Example 37, (2R)-N-(3-{5-bromo-2-[(3-methoxy-1-methyl-1H-pyrazol-4-yl)amino]pyrimidin-4-yl}-1H-indol-7-yl)-2-(4-methylpiperazin-1-yl)propanamide], the IC50 in assay [1] worked out at 15.4 µM; in assay [2], 8 nM; in assay [3] it was 1.58 µM.
Take `COc1nn(C)cc1Nc1ncc(C)c(-c2c[nH]c3c(NC(=O)[C@@H](C)N4CCN(C)C[C@H]4C)cccc23)n1` [Example 38, (2R)-2-[(2R)-2,4-dimethylpiperazin-1-yl]-N-(3-{2-[(3-methoxy-1-methyl-1H-pyrazol-4-yl)amino]-5-methylpyrimidin-4-yl}-1H-indol-7-yl)propanamide]: the IC50 was more than 30 µM in assay [1], 13 nM in assay [2] and 6.48 µM in assay [3].
Take `CCOc1nn(C)cc1Nc1ncc(F)c(-c2c[nH]c3c(NC(=O)[C@@H](C)N4CCN(C)CC4)cccc23)n1` [Example 39, (2R)-N-(3-{2-[(3-ethoxy-1-methyl-1H-pyrazol-4-yl)amino]-5-fluoropyrimidin-4-yl}-1H-indol-7-yl)-2-(4-methylpiperazin-1-yl)propanamide]: the IC50 was more than 30 µM in assay [1], 55 nM in assay [2] and 25.5 µM in assay [3].
Turning to `CCOc1nn(C)cc1Nc1ncc(Cl)c(-c2c[nH]c3c(NC(=O)[C@@H](C)N4CCN(C)CC4)cccc23)n1` [Example 40, (2R)-N-(3-{5-chloro-2-[(3-ethoxy-1-methyl-1H-pyrazol-4-yl)amino]pyrimidin-4-yl}-1H-indol-7-yl)-2-(4-methylpiperazin-1-yl)propanamide], the IC50 in assay [1] is more than 30 µM; in assay [2], 24 nM; in assay [3], 8.93 µM.
In the same order, the values of `Cc1cnc(Nc2cn(C)nc2C)nc1-c1c[nH]c2c(NC(=O)[C@@H](C)N3CCN(C)CC3)cccc12` [Example 41, (2R)-N-(3-{2-[(1,3-dimethyl-1H-pyrazol-4-yl)amino]-5-methylpyrimidin-4-yl}-1H-indol-7-yl)-2-(4-methylpiperazin-1-yl)propanamide] are more than 30 µM, less than 5 nM and 2.58 µM.
For `Cc1cnc(Nc2cn(C)nc2C)nc1-c1c[nH]c2c(NC(=O)[C@H](C)N3CCN(C)CC3)cccc12` [Example 42, (2S)-N-(3-{2-[(1,3-dimethyl-1H-pyrazol-4-yl)amino]-5-methylpyrimidin-4-yl}-1H-indol-7-yl)-2-(4-methylpiperazin-1-yl)propanamide], in that order: more than 30 µM, 106 nM and 21.1 µM.
For `CC[C@@H](C(=O)Nc1cccc2c(-c3nc(Nc4cn(C)nc4OC)ncc3C)c[nH]c12)N1CCN(C)CC1` [Example 43, (2S)-N-(3-{2-[(3-Methoxy-1-methyl-1H-pyrazol-4-yl)amino]-5-methylpyrimidin-4-yl}-1H-indol-7-yl)-2-(4-methylpiperazin-1-yl)butanamide], in that order: more than 30 µM, 79 nM and 21.1 µM.
Turning to `CC[C@H](C(=O)Nc1cccc2c(-c3nc(Nc4cn(C)nc4OC)ncc3C)c[nH]c12)N1CCN(C)CC1` [Example 44, (2R)-N-(3-{2-[(3-Methoxy-1-methyl-1H-pyrazol-4-yl)amino]-5-methylpyrimidin-4-yl}-1H-indol-7-yl)-2-(4-methylpiperazin-1-yl)butanamide], the IC50 in assay [1] is more than 30 µM; in assay [2], less than 4 nM; in assay [3] it was 1.95 µM.
`COC[C@H](C(=O)Nc1cccc2c(-c3nc(Nc4cn(C)nc4OC)ncc3C)c[nH]c12)N1CCN(C)CC1` [Example 45, (2R)-3-methoxy-N-(3-{2-[(3-methoxy-1-methyl-1H-pyrazol-4-yl)amino]-5-methylpyrimidin-4-yl}-1H-indol-7-yl)-2-(4-methylpiperazin-1-yl)propanamide]: the IC50 in assay [1] is more than 30 µM; in assay [2] it was less than 3 nM; in assay [3], 0.79 µM.
In the same order, the values of `COC[C@@H](C(=O)Nc1cccc2c(-c3nc(Nc4cn(C)nc4OC)ncc3C)c[nH]c12)N1CCN(C)CC1` [Example 46, (2S)-3-methoxy-N-(3-{2-[(3-methoxy-1-methyl-1H-pyrazol-4-yl)amino]-5-methylpyrimidin-4-yl}-1H-indol-7-yl)-2-(4-methylpiperazin-1-yl)propanamide] are more than 30 µM, 986 nM and more than 30 µM.
For `CC[C@H](C(=O)Nc1cccc2c(-c3ccnc(Nc4cn(C)nc4OC)n3)c[nH]c12)N1CCN(C)CC1` [Example 47, (2R)-N-(3-{2-[(3-Methoxy-1-methyl-1H-pyrazol-4-yl)amino]pyrimidin-4-yl}-1H-indol-7-yl)-2-(4-methylpiperazin-1-yl)butanamide], in that order: more than 30 µM, 13 nM and 6.95 µM.
With `CC[C@@H](C(=O)Nc1cccc2c(-c3ccnc(Nc4cn(C)nc4OC)n3)c[nH]c12)N1CCN(C)CC1` [Example 48, (2S)-N-(3-{2-[(3-Methoxy-1-methyl-1H-pyrazol-4-yl)amino]pyrimidin-4-yl}-1H-indol-7-yl)-2-(4-methylpiperazin-1-yl)butanamide], the values for the IC50 in assay [1], in assay [2] and in assay [3] were more than 30 µM, 1210 nM and more than 30 µM, respectively.
Turning to `CC[C@H](C(=O)Nc1cccc2c(-c3nc(Nc4cn(C)nc4C)ncc3F)c[nH]c12)N1CCN(C)CC1` [Example 49, (2R)-N-(3-{2-[(1,3-dimethyl-1H-pyrazol-4-yl)amino]-5-fluoropyrimidin-4-yl}-1H-indol-7-yl)-2-(4-methylpiperazin-1-yl)butanamide], the IC50 in assay [1] was more than 30 µM; in assay [2] it was less than 4 nM; in assay [3], 1.77 µM.
For `CC[C@@H](C(=O)Nc1cccc2c(-c3nc(Nc4cn(C)nc4C)ncc3F)c[nH]c12)N1CCN(C)CC1` [Example 50, (2S)-N-(3-{2-[(1,3-dimethyl-1H-pyrazol-4-yl)amino]-5-fluoropyrimidin-4-yl}-1H-indol-7-yl)-2-(4-methylpiperazin-1-yl)butanamide], in that order: more than 30 µM, 265 nM and 24.1 µM.
`COC[C@H](C(=O)Nc1cccc2c(-c3nc(Nc4cn(C)nc4C)ncc3F)c[nH]c12)N1CCN(C)CC1` [Example 53, (2R)-N-(3-{2-[(1,3-dimethyl-1H-pyrazol-4-yl)amino]-5-fluoropyimidin-4-yl}-1H-indol-7-yl)-3-methoxy-2-(4-methylpiperazin-1-yl)propanamide]: the IC50 in assay [1] was more than 30 µM; in assay [2], less than 3 nM; in assay [3], 0.322 µM.
For `COC[C@@H](C(=O)Nc1cccc2c(-c3nc(Nc4cn(C)nc4C)ncc3F)c[nH]c12)N1CCN(C)CC1` [Example 54, (2S)-N-(3-{2-[(1,3-dimethyl-1H-pyrazol-4-yl)amino]-5-fluoropyrimidin-4-yl}-1H-indol-7-yl)-3-methoxy-2-(4-methylpiperazin-1-yl)propanamide], in that order: more than 30 µM, 1670 nM and more than 30 µM.
For `CCc1nn(C)cc1Nc1ncc(C)c(-c2c[nH]c3c(NC(=O)[C@@H](C)N4CCN(C)CC4)cccc23)n1` [Example 55, (2R)-N-(3-{2-[(3-ethyl-1-methyl-1H-pyrazol-4-yl)amino]-5-methylpyrimidin-4-yl}-1H-indol-7-yl)-2-(4-methylpiperazin-1-yl)propanamide], in that order: more than 30 µM, 27 nM and 4.22 µM.
For `Cc1nn(C)cc1Nc1ncc(F)c(-c2c[nH]c3c(NC(=O)[C@@H](C)N4CCN(C)CC4)cccc23)n1` [Example 56, (2R)-N-(3-{2-[(1,3-dimethyl-1H-pyrazol-4-yl)amino]-5-fluoropyrimidin-4-yl}-1H-indol-7-yl)-2-(4-methylpiperazin-1-yl)propanamide], in that order: more than 30 µM, 28 nM and 5.15 µM.
